Assay results as given in patent publication US20090325262A1, “Immobilization of biological molecules onto surfaces coated with monolayers” (SURFACE LOGIX, INC., priority 2001, published 2009).
Each block holds one substance with its values, some of them ahead of it.

How the values were obtained:
[1] = SPR of protein adsorption on biotin-presenting maleimide/EG3 mixed SAM surface (specific binding and NSB)
Protocol: FIG. 4 is a surface plasmon resonance sensorgram of a SAM presenting maleimide at a density of 2%. The SAM-coated coverslip was treated with the biotinylated, thiol-containing, model peptide biotin-NH-Arg-Asp-Cys-CONH2 (1.2 mM) for 12 minutes. Afterwards, a solution of the “sticky” protein fibrinogen (0.5 mg/mL) was flowed over the surface. Only 60 RU of adsorption was observed. Another coverslip was treated with the model peptide solution and then treated with streptavidin that had been pre-incubated with biotin.
A gold chip that presents 1.5% maleimide groups in a background of EG3 was loaded into an SPR machine (Biacore 3000). Two flow channels over this chip were simultaneously exposed to cysteine-biotin that reacts with the maleinide in order to present 1.5% biotin at the surface. Subsequently, one channel was exposed to 70 ug/mL of streptavidin and then one channel was exposed to 500 ug/mL of fibrinogen.
SPR was performed with a Biacore 3000 instrument. Gold-coated glass microscope cover glass presenting SAMs to be analyzed were mounted in SPR cartridges. All experiments used a flow rate of 10 μL/min.

[2] = SPR of biospecific-covalent attachment of cutinase-fusion protein to PNPP-terminated surfaces; format: binding
Protocol: A gold chip that presents 1.5% maleimide groups in a background of EG3 was exposed to a 5 mM methanolic solution of (8-mercapto-octyl)-phosphonic acid ethyl ester 4-nitro-phenyl ester—the bifunctional molecule (compound 5; HS-PNPP)—for 1 hour. During this process the thiol group of HS-PNPP reacts with the maleimide groups at the surface and results in 1.5% of a monolayer of the PNPP ligand being presented at the surface.
The chip created above was then loaded into the SPR machine that contacts a microfluidic manifold to the gold chip to allow different solutions to be delivered to the surface in up to 4 flow channels. The following fluidic protocol was then applied to the surface and the SPR signal—which measures the mass of protein that adsorbs to the surface—was measured as a function of time:
t=0 to 300 s. Flow channels 1-3 (Fc=1 to 3) were all exposed to 20 mM tris (pH 7.4) buffer t=300 to 1500 s. Fc=1 to 3 were then exposed to 3 different solutions: Fc=1: 500 ug/mL fibrinogen in 20 mM tris (pH 7.4) buffer Fc=2: 40 microM of cutinase fused to hexahistidine (cutinase-his6) in 20 mM tris buffer Fc=3: 40 microM of cutinase-his6 pre-mixed with 100 microM of PNPP t=1500 to 2250 s. Fc=1 to 3 were all exposed to 20 mM tris (pH 7.4) buffer t=2250 to 2850 s. Fc=1 to 3 were all exposed to 8 mM SDS in 20 mM tris (pH 7.4) buffer t>2850 s. Fc=1 to 3 were all exposed to 20 mM tris (pH 7.4) buffer

streptavidin = streptavidin (Streptomyces avidinii, UniProt P22629); test: SPR of streptavidin binding to maleimide SAM treated with biotinylated model peptides; conditions: SAM presenting maleimide at 2%, then streptavidin
Description: Michael acceptor-derivatized surfaces like that depicted in FIG. 1 are well adapted for selectively immobilizing and orienting functional organic molecules for such uses as biosensors, high throughput assays, binding assays, enzymatic assays and cell cultures. […] Surface binding was detected using biotinylated, cysteine-containing peptides and streptavidin. SAMs presenting the maleimide group at a density of 2% were applied to gold-coated coverslips according to the Examples. The SAM coated coverslips were each treated with solutions containing various reactive molecules dissolved in phosphate buffer (pH 6), and the reactivity of the surface was characterized by flowing the protein streptavidin, which selectively binds biotin, over the SAM. Streptavidin binding was quantitated by surface plasmon resonance.
Referring to FIG. 3, sensorgram (A), the SAM-coated coverslip was treated with a solution of the model biotinylated peptide biotin-NH-Arg-Asp-Cys-CONH2 (1.2 mM) for 12 minutes. 2280 RU of streptavidin binding was observed. Sensorgram (B) was obtained using a solution containing a mixture of the model peptide (0.6 mM) and lysine (16 mM). […]
SPR was performed with a Biacore 3000 instrument. Gold-coated glass microscope cover glass presenting SAMs to be analyzed were mounted in SPR cartridges. […]

[3] = SPR of immobilization of cutinase to SAM terminated in phosphonate binding partner; conditions: PBS pH 7.4; not removed by SDS 0.5 mg/mL
Protocol: A self-assembled monolayer (SAM) terminated in a phosphonate binding partner moiety was prepared. The ligand was present at a low density mixed with tri(ethylene glycol) groups, which resist non-specific protein adsorption. The immobilization of cutinase to the monolayer was characterized by SPR spectroscopy. Phosphate buffered saline (pH 7.4) was flowed over the monolayer for 2 min to establish a baseline, followed by a solution of protein in the same buffer for 10 min to observe binding. Finally, the protein solution was replaced with buffer for 6 min to quantitate the amount of protein that was irreversibly immobilized.

[4] = molecular target: T1, β1,4-galactosyltransferase (Bos taurus, UniProt P08037); test: Glycosyltransferase assay on immobilized carbohydrates (UDP [14C] galactose, phosphorimaging); format: biochemical, bovine; conditions: three immobilized carbohydrate substrates; UDP [^14C] galactose 3.5 μM
T1 sequence (P08037 1-402): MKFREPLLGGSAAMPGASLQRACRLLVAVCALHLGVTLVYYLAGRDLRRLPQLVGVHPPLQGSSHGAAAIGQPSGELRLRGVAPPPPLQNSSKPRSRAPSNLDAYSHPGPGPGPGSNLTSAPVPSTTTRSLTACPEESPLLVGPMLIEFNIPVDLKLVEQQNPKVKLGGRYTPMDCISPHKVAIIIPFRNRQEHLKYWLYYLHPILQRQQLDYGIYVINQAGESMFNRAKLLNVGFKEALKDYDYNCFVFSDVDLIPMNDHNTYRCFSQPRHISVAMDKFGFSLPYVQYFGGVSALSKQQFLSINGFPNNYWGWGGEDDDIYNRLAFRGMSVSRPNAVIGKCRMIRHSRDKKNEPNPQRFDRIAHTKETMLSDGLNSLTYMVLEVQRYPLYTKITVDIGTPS
Protocol: FIG. 12 depicts the results of a Glycosyltransferase assay. The surface comprises three different carbohydrate substrates defined by columns and a control column (no substrate). Each row was reacted with a different concentration of β1,4-galactosyltransferase and a constant concentration of sugar donor (UDP [^14C] galactose, 3.5 μM). The reaction was detected by phosphorimaging.
Referring to FIG. 12, in the glycosyltransferase assay, various carbohydrates were immobilized using a thiol chemical tag to bond to a monolayer thiolate bearing a maleimide group. A glycosyltransferase enzyme was added to the immobilized carbohydrates. The ability of the enzyme to add radioactively labeled sugars to the immobilized carbohydrates was measured. In the glycosyltransferase assay the enzyme that was employed is bovine recombinant β1,4-galactosyltransferase. Preferably, the enzyme is at a concentration of about 10 pM to about 100 uM. More preferably, the enzyme is at a concentration of about 100 pM to about 1 uM.
Detection of glycosylation of the immobilized carbohydrate substrates on the base plate was performed radiometrically. The incorporation of ^14C was quantified by exposing a storage phosphor screen to the plate and then imaging it on a Variable Mode Imager (Typhoon 8600; Molecular Dynamics, Sunnyvale, Calif.). […]

signal change caused by adsorption (NSB) ([1]; 1.5% maleimide in EG3 reacted with cysteine-biotin, 500 ug/mL fibrinogen): 90 RU | adsorption (non-specific) ([1]; SAM 2% maleimide treated with biotin-NH-Arg-Asp-Cys-CONH2, fibrinogen 0.5 mg/mL): 60 RU | non-specific binding to PNPP surface ([2]; Fc=1, 500 ug/mL fibrinogen): did not stick to this surface
Substance: fibrinogen

Substance: biotin-NH-Arg-Asp-Lys-CONH2
streptavidin binding (streptavidin; peptide 4 mM for 12 minutes): no streptavidin binding

signal change caused by adsorption ([1]; 1.5% maleimide in EG3 reacted with cysteine-biotin, 70 ug/mL streptavidin): 2100 RU
Substance: streptavidin: protein which selectively binds biotin

Substance: cutinase-his6: cutinase fused to hexahistidine
protein immobilized ([2]; Fc=2, 40 microM in 20 mM tris buffer): 1150 RU | protein immobilized after SDS wash ([2]; Fc=2, after 8 mM SDS wash): 1080 RU | adsorption after preincubation with PNPP ([2]; Fc=3, 40 microM pre-mixed with 100 microM PNPP): 30 RU

Substance: Cutinase: recombinant Fusarium solani pisi cutinase expressed in E. coli
binding to phosphonate monolayer [3]: bound irreversibly to the surface

Substance: GlcNAc
substrate for the enzyme [4]: only the immobilized GlcNAc was a substrate

Substance: biotin-NH-Arg-Asp-Cys-CONH2
streptavidin binding (streptavidin; peptide 1.2 mM for 12 minutes): 2280 RU
